Test results from patent publication US11433042B2, “Methods and compositions for treating metabolic disorders” (Joslin Diabetes Center, Inc., priority 2017, dated 2022).
Entries after “also recorded” stand apart in the source; their conditions may differ.

Assays:
[1] = tested on: CD36; assay: Membrane fractionation and immunoblot, CD36; assay type: cell-based; conditions: differentiated WT-1 brown adipocytes, 1 μM for 15 minutes
Experimental: (§1) WT-1 brown preadipocytes were differentiated according to a standard adipogenic differentiation protocol for 9 days before cells were serum starved for 1 hour. Cells were treated with 1 μM 12,13-diHOME or methyl acetate vehicle in 0.1% BSA w/v in PBS for 15 minutes before cells were scraped from tissue culture plates into homogenization buffer and membranes were separated according to previously published protocols (Nishiumi, S. & Ashida, H., Bioscience, biotechnology, and biochemistry. 71, 2343-2346 (2007)). Protein lysates were stored at −20° C. until further use. Protein concentrations were determined by using the Pierce BCA kit (Life Technologies) according to instructions. For immunoblots, lysates were diluted into Laemmli buffer and boiled, then loaded onto 10% Tris gels for SDS-PAGE. After complete separation of the proteins, these were transferred on a PVDF membrane (Amersham Biosciences), blocked in western blocking buffer (Roche), and primary antibodies listed in Table 1, below, were applied in blocking buffer over night at 4° C. After washing 4× for 15 min with TBS-T, secondary antibodies were applied for 1 h in blocking buffer. Membranes were washed again 3× times for 15 min in TBS-T and developed using chemiluminescence (ThermoFisher). After scanning films, densitometry was analyzed using ImageJ software.

[2] = Daily injections of 12,13-diHOME in diet-induced obese mice; assay type: in vivo
Experimental: For the experiments with daily injections of 12,13-diHOME, mice were fed with a high-fat diet containing 60 kcal % fat (Research Diets Stock no. D12492) for 16 weeks prior to treatment and during the course of the experiment. Mice were first injected intraperitoneally daily with 1 ug/kg body weight, 12,13-diHOME in 0.1% BSA w/v in PBS or vehicle and body for one week, then injected every day with 10 ug/kg body weight two weeks. For all experiments, serum was collected and triglycerides were measured using a standard enzymatic assay (ZenBiosystems). Non-esterified FA were also measured with a colorimetric assay (Wako Chemicals USA). High-density and low-density lipoprotein fractions were isolated and cholesterol was measured with a colorimetric assay (Abcam). All mice were allowed ad libitum access to water and food.

[3] = Oral lipid tolerance test; assay type: in vivo; conditions: mice given an oral bolus of triglyceride, serum triglyceride
[4] = Blood pressure and pulse by the tail cuff method; assay type: in vivo; conditions: mice, acute pretreatment
Experimental: (§2) For cold tolerance assay, mice were injected retro-orbitally with 1 μg/kg body weight 12,13-diHOME (purchased from Cayman Chemical Company) in 0.1% w/v BSA in PBS or vehicle, then immediately placed in a cold room maintained at 4° C. and body core temperature was determined by rectal probe measurements. Mice injected retro-orbitally were also used to measure blood pressure and pulse with the tail cuff method (Hatteras Instruments).

[5] = CLAMS study in cold conditions (4° C.); assay type: in vivo; conditions: mice, 1 μg/kg intravenously, 1 h at cold (4° C.)
Experimental: For CLAMS studies, mice were injected intravenously with 1 μg/kg body weight 12,13-diHOME in 0.1% BSA PBS or vehicle and then monitored using the CLAMS system in cold conditions (4° C.) for 1 hour. Respiratory exchange ratio (R.E.R.) was calculated as the ratio of total carbon dioxide produced to total oxygen consumed.

[6] = Cold tolerance assay (body core temperature at 4° C.); assay type: in vivo; conditions: mice, 1 μg/kg retro-orbitally, cold challenge at 4° C., compared to vehicle and 12,13-epOME
Experimental: as §2

[7] = tested on: FATP1; assay: Membrane fractionation and immunoblot, FATP1; assay type: cell-based; conditions: differentiated WT-1 brown adipocytes, 1 μM for 15 minutes
Experimental: as §1

[8] = tested on: WT-1 brown adipocytes; assay: Seahorse Bioanalyzer oxygen consumption; assay type: cell-based
Experimental: WT-1 brown preadipocytes were seeded onto gelatin coated Seahorse Plates and differentiated according to standard protocols. Cells were starved for 1 h, then treated for 15 min with 1 μM 12,13-diHOME or methyl acetate vehicle. The oxygen consumption rates (OCR) were monitored in 200 μM palmitic acid plus 100 μM albumin in a Seahorse XF24 instrument using the standard protocol of 3 min mix, 2 min wait, and 3 min measure. For the normalization of respiration to protein content, cells were lysed in RIPA buffer and protein concentration was measured using the Pierce BCA kit (Life Technologies).

[9] = tested on: BAT; assay: In vivo radiolabeled organ distribution studies (oleate, glucose, triolein); conditions: mice
Experimental: For in vivo fatty acid organ distribution studies, an oleate/^3H-oleate tracer mix was complexed to fatty acid-free BSA (Schlein, et al., Cell Metab. 23, 441-453 (2016)) and injected into the tail vein of wild type C57BL/6J mice 15 minutes after treatment with either vehicle, 1 μg/kg body weight 12,13-diHOME in 0.1% BSA PBS or NE. Similarly, radiolabeled organ distribution studies were performed in mice either by injection into the tail vein with 2-desoxy-D-[^14C]-glucose (PerkinElmer, 0.025 mCi per kg) in PBS or orally gavaged with 10 mL/kg olive oil (Sigma) containing [9,10-^3H(N)]-triolein (PerkinElmer, 0.3 mCi/kg). In all assays, organs were harvested after 15 minutes under terminal anesthesia and systemic perfusion with PBS-heparin (10 U/ml) via the left heart ventricle. Tissues were homogenized by using Solvable (PerkinElmer) and disintegrations per minute per organ data were calculated by scintillation counting.

[10] = tested on: BAT; assay: In vivo bioluminescent fatty acid uptake (FFA-SS-Luc) in UCP1cre+/− Rosa(stop)Luc+/− mice; conditions: 1 ug/kg, compared to vehicle
Experimental: For in vivo bioluminescent fatty acid uptake experiments, UCP1cre^+/- mice (Stock no. 024670) were bred with Rosa(stop)Luc^+/+ (Stock no. 005125), both obtained from The Jackson Laboratory. Male offspring carrying the UCP1-cre allele were injected retro-orbitally with 1 ug/kg body weight 12,13-diHOME in 0.1% BSA PBS or vehicle, and all mice were co-injected with 2 μm FFA-SS-Luc ([…] Medical). Mice were anesthetized with isofluorane and imaged using the IVIS Spectrum CT using sequential 30 s exposures for 1 hour. Data was analyzed using Living Image Software and movies were assembled from individual images using ImageJ.

[11] = diet-induced obese mice, daily for 2 weeks at 10 μg/kg body weight
[12] = obese mice, chronic treatment (i.e., one week)

Structure (SMILES): CCCCCC(O)C(O)C/C=C\CCCCCCCC(=O)O (centres unmarked) [12,13-diHOME, 12,13-dihydroxy-9Z-octadecenoic acid]
- membrane translocation of the low glycosylation form of CD36 [1]: robustly induced
- body weight [2, 11]: no effect
- circulating non-esterified FA [2, 11]: no effect
- circulating triglyceride levels [2, 11]: significantly decreased
- glucose tolerance [2, 11]: no effect
- body weight [2, 12]: without alteration
- circulating triglyceride [2, 12]: significant reduction
- oral lipid tolerance [3]: improved
- blood pressure [4]: no effect
- diastolic pressure [4]: very transient increase
- pulse [4]: no effect
- carbon dioxide production [5]: significant increases
- oxygen consumption [5]: significant increases
- respiratory exchange ratio [5]: decrease
- body temperature during cold challenge [6]: protected mice from the decrease in body temperature; also recorded: protected mice from cold challenge
- membrane translocation of oligomeric FATP1 [7]: robustly induced
- basal respiration ([8]; 1 μM for 15 min): significantly increased
- maximal respiratory capacity ([8]; data not shown): no effect
- uncoupling ([8]; data not shown): no effect
- FA uptake into BAT ([9]; 1 μg/kg, radiolabeled oleate, similar level achieved by NE): significant increase
- glucose uptake into BAT ([9]; radiolabeled glucose, similar level achieved by NE): significant increase
- BAT specific uptake of radiolabeled triglyceride ([9]; triglyceride delivered by oral gavage): enhanced
- luminescent signal in BAT (brown adipocyte FA uptake) [10]: significantly increased
